Data on three compounds can be found in patent US11608328B2, “Chemical probes to identify anti-mycobacterial MmpL3 inhibitors” (Creighton University, priority 2019, dated 2023).

For data set [1], the system named is Mtb. The settings on record: reported by Brown et al., Bioorg. Med. Chem. 2011; cited from earlier work.
Data set [2] deals with MsmgΔmmpL3 expressing mmpL3tb T311I. It counts as cell-based, Mycobacterium smegmatis.
The test system of data set [3] is MsmgΔmmpL3 expressing mmpL3tb G253E. It counts as cell-based, Mycobacterium smegmatis.
Data set [4] concerns MsmgΔmmpL3 expressing mmpL3tb G253R. The class given is cell-based, Mycobacterium smegmatis.
The target in another data set is MmpL3tb (MmpL3^WT) (Mycobacterium tuberculosis, UniProt P9WJV5). It counts as binding. As to conditions: 50, 100 and 200 μM.
Data set [5] deals with MsmgΔmmpL3 expressing wild-type mmpL3tb. The experiment in a line: microbe, parasite or virus in culture. The settings on record: MmpL3 WT. It counts as cell-based.
Data set [6] relates to MsmgΔmmpL3 expressing mmpL3tb S591G. The class given is cell-based, Mycobacterium smegmatis.
The subject of data set [7] is Mtb H37Rv mc^26206 inverted membrane vesicles (IMVs). Briefly: Succinate-driven proton translocation assay (ACMA) in inverted membrane vesicles. The class given is biochemical, Mycobacterium tuberculosis. As to conditions: one and four times MIC against Mtb. As for the experimental part:
(§1) FIG. 19A: The reactions were initiated by adding 5 mM succinate. Upon stabilization of the signal, control compounds (INH, RIF, nigericin), the MmpL3 inhibitors or diluent (water, used for INH, or 0.2% DMSO, used for all other compounds) were added and proton translocation monitored fluorimetrically. MmpL3 inhibitors and controls were used at one and four times their MIC concentrations against Mtb. Shown are the averages and standard deviations (error bars) of triplicate measurements.
(§2) Succinate-driven proton translocation assays with the fluorescent substrate ACMA were conducted as previously described (see e.g., Li et al. J. Med. Chem. 2014, 57: 3126-3139) to determine the effect of MmpL3 inhibitors on the electrochemical proton gradient of Mtb H37Rv mc^26206 and E. coli BL21(DE3) IMVs. IMVs (0.18 mg/mL membrane proteins) were pre-incubated at 37° C. in 10 mM HEPES-KOH pH 7.5, 100 mM KCl, 5 mM MgCl2 containing 2 μM ACMA and the baseline monitored for 10 min with a fluorescence spectrophotometer (Victor X5, PerkinElmer). The reaction was then initiated by adding 5 mM succinate. Upon stabilization of the signal, control compounds (INH, RIF, nigericin), MmpL3 inhibitors, or diluent (0.2% DMSO or water) were added and proton translocation monitored fluorimetrically. The excitation and emission wavelengths were 410 nm and 480 nm, respectively.

The test system of data set [8] is MsmgΔmmpL3 expressing mmpL3tb F644Y. It counts as cell-based, Mycobacterium smegmatis.
The conditions of data set [9]: BLI assay buffer.
The subject of data set [10] is transmembrane electrochemical proton gradient (ΔpH) of intact Mtb H37Rv mc^26206 cells. The experiment in a line: Electrochemical proton gradient measurement with CMFDA in intact cells. It counts as cell-based, Mycobacterium tuberculosis.
Data set [11] has as its system MsmgΔmmpL3 expressing mmpL3tb S591I. The class given is cell-based, Mycobacterium smegmatis.
In data set [12] the test system is MsmgΔmmpL3 expressing mmpL3tb L189R. The class given is cell-based, Mycobacterium smegmatis.
The target in a further data set is purified MmpL3tb protein (Mycobacterium tuberculosis, UniProt P9WJV5). The experiment in a line: Surface Plasmon Resonance binding to immobilized MmpL3tb.
The subject of data set [13] is MsmgΔmmpL3 expressing mmpL3tb LI89A. Briefly: microbe, parasite or virus in culture. The class given is cell-based. The settings on record: Table 2; mutant LI89A.
The subject of data set [14] is MsmgΔmmpL3 expressing mmpL3tb V684W. It counts as cell-based, Mycobacterium smegmatis.
For data set [15], the system named is MsmgΔmmpL3 expressing mmpL3tb V684I. The class given is cell-based, Mycobacterium smegmatis.
The target in a further data set is purified MmpL3-GFP (Mycobacterium tuberculosis, UniProt P9WJV5). The class given is binding. As to conditions: 2 μM Compound 2 with increasing inhibitor concentrations.
The subject of data set [16] is MsmgΔmmpL3 expressing mmpL3tb V684A. The class given is cell-based, Mycobacterium smegmatis.
Data set [17] deals with transmembrane potential (ΔΨ) of intact Mtb H37Rv mc^26206 cells. The experiment in a line: Membrane potential measurement with DiOC2(3) in intact cells. The class given is cell-based, Mycobacterium tuberculosis.
For another data set, the system named is E. coli BL21(DE3) IMVs. Briefly: Succinate-driven proton translocation assay (ACMA) in inverted membrane vesicles. It counts as biochemical. The settings on record: 2 μg/mL. As for the experimental part:
as §1, §2

Data set [18] deals with MsmgΔmmpL3 expressing mmpL3tb Q372R. It counts as cell-based, Mycobacterium smegmatis.
The subject of data set [19] is MsmgΔmmpL3 expressing mmpL3tb S591W. It counts as cell-based, Mycobacterium smegmatis.
Data set [20] relates to MsmgΔmmpL3 expressing mmpL3tb S309C. It counts as cell-based, Mycobacterium smegmatis.
Data set [21] deals with transfer of mycolic acids onto their cell envelope acceptors in MsmgΔmmpL3/pMVGH1-mmpL3tb. The class given is cell-based. As to conditions: 3 hours.
Data set [22] has as its system MsmgΔmmpL3 expressing mmpL3tb G253W. The class given is cell-based, Mycobacterium smegmatis.
Data set [23] concerns MsmgΔmmpL3 expressing mmpL3tb S288T. It counts as cell-based, Mycobacterium smegmatis.
Data set [24] has as its system MsmgΔmmpL3 expressing mmpL3tb F644C. It counts as cell-based, Mycobacterium smegmatis.
In data set [25] the test system is Mtb. Briefly: MIC values against Mtb used for the PMF assays. The class given is cell-based, Mycobacterium tuberculosis. The settings on record: against Mtb, FIG. 8 legend, read-out: MIC values.
Data set [26] deals with MsmgΔmmpL3 expressing mmpL3tb L567P. The class given is cell-based, Mycobacterium smegmatis.
The test system of data set [27] is MsmgΔmmpL3 expressing mmpL3tb F644C/I/L. The class given is cell-based, Mycobacterium smegmatis.
The target in data set [28] is MmpL3tb in MsmgΔmmpL3/pMVGH1-mmpL3tb cells (Mycobacterium tuberculosis, UniProt P9WJV5). It counts as cell-based.

≈ marks a conversion by molar mass, not a printed value. Where “and” joins values, the source holds several entries; their conditions need not be identical. Equal values may be shown once. Read-outs that look alike come from different tables or passages of the source. Marks after values point to notes of the source that are not given here.

purified MmpL3tb protein, sequence (P9WJV5 whole entry): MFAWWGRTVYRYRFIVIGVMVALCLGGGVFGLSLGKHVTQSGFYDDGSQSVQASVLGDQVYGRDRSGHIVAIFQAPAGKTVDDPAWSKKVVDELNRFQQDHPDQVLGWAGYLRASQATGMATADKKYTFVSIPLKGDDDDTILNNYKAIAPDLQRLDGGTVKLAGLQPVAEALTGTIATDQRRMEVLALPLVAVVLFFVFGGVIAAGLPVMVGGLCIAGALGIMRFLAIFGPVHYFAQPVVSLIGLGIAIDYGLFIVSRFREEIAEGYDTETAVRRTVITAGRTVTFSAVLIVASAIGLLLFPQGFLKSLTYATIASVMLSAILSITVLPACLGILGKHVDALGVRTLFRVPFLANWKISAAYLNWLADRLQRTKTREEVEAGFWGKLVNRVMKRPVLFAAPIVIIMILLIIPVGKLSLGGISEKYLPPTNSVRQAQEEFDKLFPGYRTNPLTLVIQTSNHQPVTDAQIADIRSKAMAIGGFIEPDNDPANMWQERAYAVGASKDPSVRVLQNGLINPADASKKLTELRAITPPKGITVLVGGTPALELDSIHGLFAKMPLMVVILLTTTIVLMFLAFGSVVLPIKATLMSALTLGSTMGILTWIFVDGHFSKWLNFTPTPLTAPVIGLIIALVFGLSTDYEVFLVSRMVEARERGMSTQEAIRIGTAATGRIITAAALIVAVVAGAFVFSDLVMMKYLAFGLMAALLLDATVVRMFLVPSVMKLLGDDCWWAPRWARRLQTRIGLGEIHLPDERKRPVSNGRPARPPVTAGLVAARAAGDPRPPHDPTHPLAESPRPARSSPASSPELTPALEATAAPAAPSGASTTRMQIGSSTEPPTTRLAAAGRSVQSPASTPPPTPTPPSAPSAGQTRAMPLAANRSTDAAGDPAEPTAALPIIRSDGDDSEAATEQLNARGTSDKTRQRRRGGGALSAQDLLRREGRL
purified MmpL3-GFP, sequence (P9WJV5 whole entry): as above
MmpL3tb in MsmgΔmmpL3/pMVGH1-mmpL3tb cells, sequence (P9WJV5 whole entry, looked up, stated change not applied): as the sequence (P9WJV5 whole entry) above
MmpL3tb (MmpL3^WT), sequence (P9WJV5 whole entry): as above

On to `COC(=O)c1ccc(NC(=O)NC23CC4CC(CC(C4)C2)C3)cc1O` [AU, methyl 1-(1-adamantyl)-3-(4-aminosalicylate)urea], for which the “Mtb MIC value” with Mtb [1] was 0.4 µg/mL.
Regarding `Cc1c(CN2CCN(C)CC2)cc(-c2ccc(Cl)cc2)n1-c1ccc(Cl)cc1` [BM212], the MIC in data set [2] is 12.5 µg/mL (≈ 30.2 µM); in [3] it was 12.5 µg/mL and 8 µg/mL; in data set [4], 8 µg/mL (≈ 19.3 µM); in [5] (Table 2) it was 4 µg/mL (≈ 9.65 µM); in [5] (Tables 1A-1B) it was 6.25 µg/mL (≈ 15.1 µM); in [6] it was 1^c μg/mL. The MIC in [8] is 8 µg/mL (≈ 19.3 µM); in data set [11], 25.0^b μg/mL and 16 μg/mL; in data set [12], 12.5 µg/mL and 8 µg/mL; in data set [13], 8 µg/mL (≈ 19.3 µM); in data set [14] it was 4 µg/mL (≈ 9.65 µM); in [15] it was 2 µg/mL (≈ 4.83 µM). The MIC is 6.25 µg/mL and 4 µg/mL in data set [16]; 12.5 µg/mL (≈ 30.2 µM) in data set [18]; 4^c μg/mL in [19]; 12.5 µg/mL (≈ 30.2 µM) in data set [20]; 8 µg/mL (≈ 19.3 µM) in data set [22]; 25.0^b μg/mL in data set [23]. Also, the MIC in data set [24] was found to be 3.13 µg/mL (≈ 7.55 µM); in the data set on Mtb [25], 3.76 µM (≈ 1.56 µg/mL); in data set [26], 12.5 µg/mL (≈ 30.2 µM); in [27], 4 µg/mL (≈ 9.65 µM). Moreover, the BLI binding signal result on MmpL3tb (MmpL3^WT) is “only yielded weak binding signals”. Moreover, the “effect on ΔpH of Mtb IMVs” value in data set [7] was “increase of fluorescence intensity indicative of ΔpH collapse”. For the same compound, the “solubility limit in 5% DMSO” value in data set [9] stood at 50 µM (≈ 20.7 µg/mL). Also, the “effect on electrochemical proton gradient (ΔpH)” value in [10] was “collapsed ΔpH”. Moreover, the ka2 at purified MmpL3tb protein (SPR global fit) was 0.005 1/RU*s. At purified MmpL3tb protein (SPR global fit), this compound returned a kd1 of 1.67 s⁻¹. The compound further came in with a kd2 at purified MmpL3tb protein (SPR global fit) of 0.0222 s⁻¹. Further, at purified MmpL3tb protein (SPR global fit, HEPES-TX buffer with 5% DMSO), the ka1 came out at 1054.8 M⁻¹ s⁻¹. Besides, the “Model (best-fit kinetic model)” value at purified MmpL3tb protein (SPR sensorgrams fit globally) is on record as “Two-state reaction”. Besides, at purified MmpL3tb protein (equilibrium dissociation constant calculated from the rate constants, read-out: KD1), the Kd was 1290 µM. Besides, at purified MmpL3-GFP, the “displacement of Compound 2 from purified MmpL3tb” value is on record as “clear concentration-dependent displacement”. Besides, the “effect on membrane potential (ΔΨ)” value in data set [17] was “only showed an effect on ΔΨ at the highest concentration tested (8×MIC)”. In addition, the “effect on ΔpH of E. coli IMVs” value with E. coli BL21(DE3) IMVs is given as “showed no such activity”. The “inhibition of transfer of mycolic acids to cell envelope acceptors” value in [21] is reported as “actually targeted MmpL3tb in the Msmg recombinant system”.
As for `NNC(=O)c1ccncc1` [INH, isoniazid], the “displacement of Compound 2 from purified MmpL3tb” value at purified MmpL3-GFP is recorded as “No significant displacement”. Besides, the “displacement of probe (Compound 1 or Compound 2) in intact cells” value in data set [28] is recorded as “not observed”. The MIC in the data set on Mtb [25] (Mycobacterium tuberculosis) worked out at 0.58 µM (≈ 0.0795 µg/mL).
